# In patent US20240174744A1, “METHODS OF TREATMENT USING PROTEIN BINDERS TO IRHOM2 EPITOPES” (SCIRHOM GMBH, priority 2021, published 2024):
# System: LPS-induced release of TNFα from PBMCs from healthy donors
# Test: ELISA-based TNFα release assay, PBMCs from healthy donors
# Assay type: cell-based
# Conditions: Homo sapiens, PBMC; recombinant murine antibodies 1 μg/ml; Batimastat 10 μM; LPS 50 ng/ml, 2 hours
# Procedure: In the following study, ELISA-based TNFα release assays were performed to analyze the inhibitory effects of the antibodies of the present disclosure on LPS-induced release of endogenous TNFα from primary human material obtained from healthy donors using peripheral blood mononuclear cells (PBMCs).
# In brief, on day 1, Nunc black MaxiSorp® 96-well plates (Thermo Fisher Scientific, USA) were coated overnight with 100 μl per well of mouse anti-human TNFα capture antibody (provided as part of the DuoSet ELISA kit) at 4 μg/ml TBS at 4° C. On day 2, the capture antibody solution was removed and MaxiSorp® plates were blocked with 300 μl per well of TBS, 1% BSA at room temperature for 3 hours. […] Using an infinite M1000 (Tecan Group, Switzerland) microplate reader, the fluorescence of each well was collected at an excitation wavelength of 435 nm and an emission wavelength of 555 nm.
smiles,measurement,value
CNC(=O)[C@H](Cc1ccccc1)NC(=O)[C@H](CC(C)C)[C@H](CSc1cccs1)C(=O)NO [Batimastat],inhibition at 10 µM,99.6%
